Measured values from patent publication US20230390319A1, “INTERFERON GENE STIMULATOR COMPOSITION COMPRISING INDOLIZINE DERIVATIVE AS ACTIVE INGREDIENT” (AJOU UNIVERSITY INDUSTRY-ACADEMIC COOPERATION FOUNDATION, priority 2020, published 2023).

Legend:
ISRE reporter signal = test: ISRE luciferase reporter assay, THP-1 cells co-treated with compound and cGAMP; format: cell-based, Human; conditions: THP-1 cells, 20 μM of each compound, co-treated with cGAMP (1 μg/ml), 24 hours
Experimental: (§1) Human monocytic THP-1 wild-type (WT) and STING knockout (KO) cell lines were obtained from InvivoGen. Cells were cultured in 1×RPMI 1640 medium containing 10% fetal bovine serum (FBS, Hyclone), 2.05 mM L-glutamine (Hyclone) and 1% penicillin (Corning) in a humidified incubator at 37° C. under 5% CO2.
To confirm immune responses, THP-1 cells were placed in 384-well plates (Grenier), and treated with each compound and cGAMP (1 μg/ml), and after 24 hours, ISRE activity was analyzed. QUANTI-Luc assay (InvivoGen) was performed using the cell culture supernatant to confirm the luciferase reporter gene signal. Fluorescent signals were measured using a TECAN micro plate reader SPARK, and the results were normalized to DMSO control.
(§2) THP-1 cells were co-treated with each of 86 indolizine derivatives and a very small amount of cGAMP (1 μg/ml), the immune response of the THP-1 cells was examined by ISRE reporter assay, and the cytotoxicity of co-treatment was also evaluated (Table 1). All results were compared by normalization to the reporter assay results obtained by treatment with cGAMP alone. […] Thus, Compound 42 was used in subsequent experiments.

THP-1 cells = test: Cell viability assay (CellTiter Clo) in THP-1 cells; format: cell-based, Human; conditions: THP-1 cells, 20 μM of each compound, co-treated with cGAMP (1 μg/ml)
Experimental: as §1
Cells were analyzed using CellTiter Clo (CTG, Promega). […] was measured using a TECAN micro plate reader SPARK. Results were normalized to DMSO control.
as §2

| SMILES | Normalized RU (relative unit of ISRE reporter signal) (ISRE reporter signal) | Normalized cell viability (THP-1 cells) |
| --- | --- | --- |
| O=C(c1ccc(C(F)(F)F)cc1)c1cc(-c2ccc(C(F)(F)F)cc2)c2cc(C(F)(F)F)ccn12 [Compound 1] | 1.46 | 1.10 |
| CC(=O)c1ccc(-c2cc(C(=O)c3ccc(C(F)(F)F)cc3)n3ccc(C(F)(F)F)cc23)cc1 [Compound 2] | 1.42 | 1.03 |
| O=C(c1ccc(C(F)(F)F)cc1)c1cc(-c2ccccc2)c2cc(C(F)(F)F)ccn12 [Compound 3] | 1.40 | 1.04 |
| COc1ccc(-c2cc(C(=O)c3ccc(C(F)(F)F)cc3)n3ccc(C(F)(F)F)cc23)cc1 [Compound 4] | 1.33 | 1.05 |
| CN(C)c1ccc(-c2cc(C(=O)c3ccc(C(F)(F)F)cc3)n3ccc(C(F)(F)F)cc23)cc1 [Compound 5] | 1.58 | 1.05 |
| O=C(c1ccccc1)c1cc(-c2ccc(C(F)(F)F)cc2)c2cc(C(F)(F)F)ccn12 [Compound 6] | 1.38 | 1.19 |
| CC(=O)c1ccc(-c2cc(C(=O)c3ccccc3)n3ccc(C(F)(F)F)cc23)cc1 [Compound 7] | 1.54 | 1.20 |
| O=C(c1ccccc1)c1cc(-c2ccccc2)c2cc(C(F)(F)F)ccn12 [Compound 8] | 1.18 | 1.06 |
| COc1ccc(-c2cc(C(=O)c3ccccc3)n3ccc(C(F)(F)F)cc23)cc1 [Compound 9] | 1.21 | 1.03 |
| CN(C)c1ccc(-c2cc(C(=O)c3ccccc3)n3ccc(C(F)(F)F)cc23)cc1 [Compound 10] | 1.67 | 1.21 |
| COc1ccc(C(=O)c2cc(-c3ccc(C(F)(F)F)cc3)c3cc(C(F)(F)F)ccn23)cc1 [Compound 11] | 2.02 | 1.16 |
| COc1ccc(C(=O)c2cc(-c3ccc(C(C)=O)cc3)c3cc(C(F)(F)F)ccn23)cc1 [Compound 12] | 1.31 | 1.25 |
| COc1ccc(C(=O)c2cc(-c3ccccc3)c3cc(C(F)(F)F)ccn23)cc1 [Compound 13] | 1.62 | 1.14 |
| COc1ccc(C(=O)c2cc(-c3ccc(OC)cc3)c3cc(C(F)(F)F)ccn23)cc1 [Compound 14] | 1.48 | 1.30 |
| COc1ccc(C(=O)c2cc(-c3ccc(N(C)C)cc3)c3cc(C(F)(F)F)ccn23)cc1 [Compound 15] | 1.18 | 1.17 |
| CCN(CC)c1ccc(C(=O)c2cc(-c3ccc(C(F)(F)F)cc3)c3cc(C(F)(F)F)ccn23)cc1 [Compound 16] | 1.66 | 1.22 |
| CCN(CC)c1ccc(C(=O)c2cc(-c3ccc(C(C)=O)cc3)c3cc(C(F)(F)F)ccn23)cc1 [Compound 17] | 1.45 | 1.29 |
| CCN(CC)c1ccc(C(=O)c2cc(-c3ccccc3)c3cc(C(F)(F)F)ccn23)cc1 [Compound 18] | 1.85 | 1.17 |
| CCN(CC)c1ccc(C(=O)c2cc(-c3ccc(OC)cc3)c3cc(C(F)(F)F)ccn23)cc1 [Compound 19] | 1.58 | 1.29 |
| CCN(CC)c1ccc(C(=O)c2cc(-c3ccc(N(C)C)cc3)c3cc(C(F)(F)F)ccn23)cc1 [Compound 20] | 1.46 | 1.05 |
| CC(=O)c1ccn2c(C(=O)c3ccc(C(F)(F)F)cc3)cc(-c3ccc(C(F)(F)F)cc3)c2c1 [Compound 21] | 1.86 | 1.19 |
| CC(=O)c1ccc(-c2cc(C(=O)c3ccc(C(F)(F)F)cc3)n3ccc(C(C)=O)cc23)cc1 [Compound 22] | 1.31 | 1.09 |
| CC(=O)c1ccn2c(C(=O)c3ccc(C(F)(F)F)cc3)cc(-c3ccccc3)c2c1 [Compound 23] | 1.23 | 1.11 |
| COc1ccc(-c2cc(C(=O)c3ccc(C(F)(F)F)cc3)n3ccc(C(C)=O)cc23)cc1 [Compound 24] | 1.33 | 1.21 |

| SMILES | Normalized RU (relative unit of ISRE reporter signal) (ISRE reporter signal) | Normalized cell viability (THP-1 cells) |
| --- | --- | --- |
| CC(=O)c1ccn2c(C(=O)c3ccc(C(F)(F)F)cc3)cc(-c3ccc(N(C)C)cc3)c2c1 [Compound 25] | 1.75 | 1.12 |
| CC(=O)c1ccn2c(C(=O)c3ccccc3)cc(-c3ccc(C(F)(F)F)cc3)c2c1 [Compound 26] | 1.60 | 1.21 |
| CC(=O)c1ccc(-c2cc(C(=O)c3ccccc3)n3ccc(C(C)=O)cc23)cc1 [Compound 27] | 1.18 | 1.17 |
| CC(=O)c1ccn2c(C(=O)c3ccccc3)cc(-c3ccccc3)c2c1 [Compound 28] | 1.69 | 1.13 |
| COc1ccc(-c2cc(C(=O)c3ccccc3)n3ccc(C(C)=O)cc23)cc1 [Compound 29] | 1.00 | 1.20 |
| CC(=O)c1ccn2c(C(=O)c3ccccc3)cc(-c3ccc(N(C)C)cc3)c2c1 [Compound 30] | 1.33 | 1.26 |
| COc1ccc(C(=O)c2cc(-c3ccc(C(F)(F)F)cc3)c3cc(C(C)=O)ccn23)cc1 [Compound 31] | 3.42 | 1.33 |
| COc1ccc(C(=O)c2cc(-c3ccc(C(C)=O)cc3)c3cc(C(C)=O)ccn23)cc1 [Compound 32] | 2.91 | 1.11 |
| COc1ccc(C(=O)c2cc(-c3ccccc3)c3cc(C(C)=O)ccn23)cc1 [Compound 33] | 2.18 | 1.22 |
| COc1ccc(C(=O)c2cc(-c3ccc(OC)cc3)c3cc(C(C)=O)ccn23)cc1 [Compound 34] | 1.52 | 1.26 |
| COc1ccc(C(=O)c2cc(-c3ccc(N(C)C)cc3)c3cc(C(C)=O)ccn23)cc1 [Compound 35] | 2.22 | 1.26 |
| CCN(CC)c1ccc(C(=O)c2cc(-c3ccc(C(F)(F)F)cc3)c3cc(C(C)=O)ccn23)cc1 [Compound 36] | 3.37 | 1.27 |
| CCN(CC)c1ccc(C(=O)c2cc(-c3ccc(C(C)=O)cc3)c3cc(C(C)=O)ccn23)cc1 [Compound 37] | 1.62 | 1.25 |
| CCN(CC)c1ccc(C(=O)c2cc(-c3ccccc3)c3cc(C(C)=O)ccn23)cc1 [Compound 38] | 1.77 | 1.34 |
| CCN(CC)c1ccc(C(=O)c2cc(-c3ccc(OC)cc3)c3cc(C(C)=O)ccn23)cc1 [Compound 39] | 1.47 | 1.18 |
| CCN(CC)c1ccc(C(=O)c2cc(-c3ccc(N(C)C)cc3)c3cc(C(C)=O)ccn23)cc1 [Compound 40] | 1.09 | 1.17 |
| O=C(c1ccc(C(F)(F)F)cc1)c1cc(-c2ccc(C(F)(F)F)cc2)c2ccccn12 [Compound 41] | 3.85 | 1.25 |
| O=C(c1ccc(C(F)(F)F)cc1)c1cc(-c2ccccc2)c2ccccn12 [Compound 43] | 1.08 | 1.13 |
| COc1ccc(-c2cc(C(=O)c3ccc(C(F)(F)F)cc3)n3ccccc23)cc1 [Compound 44] | 0.89 | 1.24 |
| CN(C)c1ccc(-c2cc(C(=O)c3ccc(C(F)(F)F)cc3)n3ccccc23)cc1 [Compound 45] | 1.28 | 1.22 |
| O=C(c1ccccc1)c1cc(-c2ccc(C(F)(F)F)cc2)c2ccccn12 [Compound 46] | 1.08 | 1.25 |
| CC(=O)c1ccc(-c2cc(C(=O)c3ccccc3)n3ccccc23)cc1 [Compound 47] | 1.15 | 1.12 |
| O=C(c1ccccc1)c1cc(-c2ccccc2)c2ccccn12 [Compound 48] | 1.37 | 1.18 |
| COc1ccc(-c2cc(C(=O)c3ccccc3)n3ccccc23)cc1 [Compound 49] | 1.17 | 1.21 |
